From PMC6321621, “Design of a Novel and Selective IRAK4 Inhibitor Using Topological Water Network Analysis and Molecular Modeling Approaches” (Molecules, 2018)

Tests used:
Type in all cases: biochemical
[1] = target: T1, IRAK4 (h) (Homo sapiens, UniProt Q9NWZ3); test: Enzymatic assay for IRAK4 (radiometric, Eurofins); details: for IC50: in vitro enzymatic assay, duplicate, average, read-out: IC50 against IRAK4
T1 construct: purchased Eurofins Scientific Inc. Korea (contract assay service)
T1 sequence (Q9NWZ3 1-460): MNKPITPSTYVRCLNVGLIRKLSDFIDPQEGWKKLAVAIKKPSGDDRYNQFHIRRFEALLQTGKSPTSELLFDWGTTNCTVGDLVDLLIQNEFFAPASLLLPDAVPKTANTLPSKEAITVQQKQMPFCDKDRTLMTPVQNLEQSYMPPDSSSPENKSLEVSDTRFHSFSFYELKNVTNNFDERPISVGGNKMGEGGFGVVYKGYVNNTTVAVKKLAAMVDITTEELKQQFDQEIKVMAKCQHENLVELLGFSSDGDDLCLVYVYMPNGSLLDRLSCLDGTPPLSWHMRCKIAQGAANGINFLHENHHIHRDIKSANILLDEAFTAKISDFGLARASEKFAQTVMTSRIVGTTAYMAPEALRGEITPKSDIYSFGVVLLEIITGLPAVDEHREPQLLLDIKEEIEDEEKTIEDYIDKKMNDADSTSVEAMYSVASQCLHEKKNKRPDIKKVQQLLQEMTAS
Protocol: (§1) Enzymatic assays for IRAK4, ASK1, ITK, and LYN were performed by Eurofins Scientific Inc. Korea (Brussels, Belgium). All assays were performed in duplicate, and the average IC50 value was reported.
(§2) IRAK4 (h) was incubated with 8 mM MOPS pH 7.0, 0.2 mM EDTA, 0.33 mg/mL myelin basic protein, 10 mM Mg acetate and [γ-^33P]-ATP (specific activity approx. 500 cpm/pmol, concentration as required). The reaction was initiated by the addition of a MgATP mix. After incubation for 40 min at room temperature, the reaction was stopped by the addition of 3% phosphoric acid solution. A total of 10 μL of the reaction was then spotted onto a P30 filtermat and washed three times for 5 min in 75 mM phosphoric acid, and once in methanol prior to drying and scintillation counting.

[2] = target: T2, ASK1 (h) (Homo sapiens, UniProt Q99683); test: Enzymatic assay for ASK1 (radiometric, Eurofins); details: in vitro enzymatic assay, duplicate, average; read-out: IC50 against ASK1
T2 construct: purchased Eurofins Scientific Inc. Korea (contract assay service)
T2 sequence (Q99683 1-1374): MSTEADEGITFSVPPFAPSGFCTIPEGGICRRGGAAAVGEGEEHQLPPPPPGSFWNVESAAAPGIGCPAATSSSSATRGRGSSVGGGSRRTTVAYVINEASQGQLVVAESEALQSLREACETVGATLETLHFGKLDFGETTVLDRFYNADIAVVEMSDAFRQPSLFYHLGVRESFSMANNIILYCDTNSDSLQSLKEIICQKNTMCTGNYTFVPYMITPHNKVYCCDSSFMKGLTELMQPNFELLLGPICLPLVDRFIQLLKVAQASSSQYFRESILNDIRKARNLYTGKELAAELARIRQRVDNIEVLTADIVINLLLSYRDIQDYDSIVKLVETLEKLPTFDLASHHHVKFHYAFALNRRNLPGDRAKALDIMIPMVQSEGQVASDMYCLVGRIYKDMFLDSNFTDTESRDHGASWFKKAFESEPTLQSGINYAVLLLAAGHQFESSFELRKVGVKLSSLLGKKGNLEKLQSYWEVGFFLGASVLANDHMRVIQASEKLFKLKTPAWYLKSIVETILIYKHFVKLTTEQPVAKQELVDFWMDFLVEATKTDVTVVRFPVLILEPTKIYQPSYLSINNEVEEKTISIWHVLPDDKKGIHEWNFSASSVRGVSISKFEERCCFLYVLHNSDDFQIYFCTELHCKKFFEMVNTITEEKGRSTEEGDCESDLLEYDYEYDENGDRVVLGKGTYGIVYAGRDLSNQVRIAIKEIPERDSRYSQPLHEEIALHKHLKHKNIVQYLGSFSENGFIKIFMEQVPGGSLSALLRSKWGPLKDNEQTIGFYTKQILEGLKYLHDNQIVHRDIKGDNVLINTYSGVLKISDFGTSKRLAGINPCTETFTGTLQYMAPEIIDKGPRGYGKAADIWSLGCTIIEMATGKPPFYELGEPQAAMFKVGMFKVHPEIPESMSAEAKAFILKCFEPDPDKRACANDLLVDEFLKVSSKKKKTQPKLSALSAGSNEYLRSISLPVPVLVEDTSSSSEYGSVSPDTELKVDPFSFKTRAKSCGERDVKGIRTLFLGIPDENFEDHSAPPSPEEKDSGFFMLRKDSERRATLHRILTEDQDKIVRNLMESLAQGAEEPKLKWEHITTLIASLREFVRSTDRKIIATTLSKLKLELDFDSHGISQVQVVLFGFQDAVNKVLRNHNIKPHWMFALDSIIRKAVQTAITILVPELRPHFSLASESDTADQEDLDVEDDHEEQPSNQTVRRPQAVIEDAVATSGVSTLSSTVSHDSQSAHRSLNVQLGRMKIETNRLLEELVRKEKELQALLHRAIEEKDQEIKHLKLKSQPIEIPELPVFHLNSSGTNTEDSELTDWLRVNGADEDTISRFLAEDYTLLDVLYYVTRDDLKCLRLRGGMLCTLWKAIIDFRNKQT
Protocol: as §1
as §2, with “ASK1 (h)” for “IRAK4 (h)”, “of the” for “of a”

[3] = target: T3, ITK (h) (Homo sapiens, UniProt Q08881); test: Enzymatic assay for ITK (radiometric, Eurofins); details: in vitro enzymatic assay, duplicate, average; read-out: IC50 against ITK
T3 construct: purchased Eurofins Scientific Inc. Korea (contract assay service)
T3 sequence (Q08881 1-620): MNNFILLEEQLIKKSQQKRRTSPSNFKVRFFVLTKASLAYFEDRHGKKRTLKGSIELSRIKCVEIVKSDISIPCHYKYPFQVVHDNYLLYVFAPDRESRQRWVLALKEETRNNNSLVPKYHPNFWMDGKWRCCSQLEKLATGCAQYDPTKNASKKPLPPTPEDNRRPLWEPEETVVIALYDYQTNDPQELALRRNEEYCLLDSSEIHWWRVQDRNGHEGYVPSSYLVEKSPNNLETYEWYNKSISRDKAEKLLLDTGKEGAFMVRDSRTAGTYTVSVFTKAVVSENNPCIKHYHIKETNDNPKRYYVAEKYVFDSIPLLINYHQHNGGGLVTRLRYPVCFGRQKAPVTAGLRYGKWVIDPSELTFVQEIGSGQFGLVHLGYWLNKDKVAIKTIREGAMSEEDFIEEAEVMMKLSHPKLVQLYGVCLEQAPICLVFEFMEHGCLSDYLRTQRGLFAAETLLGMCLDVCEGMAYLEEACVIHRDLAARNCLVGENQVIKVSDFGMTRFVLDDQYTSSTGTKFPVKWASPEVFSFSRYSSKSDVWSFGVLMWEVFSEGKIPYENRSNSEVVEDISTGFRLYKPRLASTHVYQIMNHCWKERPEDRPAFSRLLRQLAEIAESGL
Protocol: as §2, with “Enzymatic assays for IRAK4, ASK1, ITK, and LYN were performed by Eurofins Scientific Inc. Korea (Brussels, Belgium). All assays were performed in duplicate, and the average IC50 value was reported. ITK (h)” for “IRAK4 (h)”, “Mg acetate,” for “Mg acetate”, “of the” for “of a”

[4] = target: T4, LYN (h) (Homo sapiens, UniProt P07948); test: Enzymatic assay for LYN (radiometric, Eurofins); details: in vitro enzymatic assay, duplicate, average; read-out: IC50 against LYN
T4 construct: purchased Eurofins Scientific Inc. Korea (contract assay service)
Protocol: Enzymatic assays for IRAK4, ASK1, ITK, and LYN were performed by Eurofins Scientific Inc. Korea (Brussels, Belgium). All assays were performed in duplicate, and the average IC50 value was reported. LYN (h) was incubated with 50 mM Tris pH 7.5, 0.1 mM EGTA, 0.1 mM Na3VO4, 0.1% […], 0.1 mg/mL poly(Glu, Tyr) 4:1, 10 mM Mg acetate, and [γ-^33P]-ATP (specific activity approx. 500 cpm/pmol, concentration as required). The reaction was initiated by the addition of the MgATP mix. After incubation for 40 min at room temperature, the reaction was stopped by the addition of 3% phosphoric acid solution. A total of 10 μL of the reaction was then spotted onto a Filtermat A and washed three times for 5 min in 75 mM phosphoric acid, and once in methanol prior to drying and scintillation counting.

T4 sequence (P07948 whole entry): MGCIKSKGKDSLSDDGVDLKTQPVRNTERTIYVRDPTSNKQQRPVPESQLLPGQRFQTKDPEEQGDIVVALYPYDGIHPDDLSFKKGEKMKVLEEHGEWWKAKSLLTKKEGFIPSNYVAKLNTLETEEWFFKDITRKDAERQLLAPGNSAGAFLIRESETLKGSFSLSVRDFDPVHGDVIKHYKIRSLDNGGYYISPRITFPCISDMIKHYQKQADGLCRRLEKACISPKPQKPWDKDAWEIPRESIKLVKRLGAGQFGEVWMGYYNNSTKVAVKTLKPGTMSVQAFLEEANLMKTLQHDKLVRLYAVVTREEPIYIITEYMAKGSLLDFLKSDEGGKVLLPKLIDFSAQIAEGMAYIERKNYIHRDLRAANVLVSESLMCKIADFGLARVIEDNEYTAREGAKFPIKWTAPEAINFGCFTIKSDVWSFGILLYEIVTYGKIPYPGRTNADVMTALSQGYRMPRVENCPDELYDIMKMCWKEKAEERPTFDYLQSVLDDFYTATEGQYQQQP

| inhibition of IRAK4 ([1]; at 10 μM) [%] | IC50 [1] [nM] | IC50 [2] [nM] | IC50 [3] [nM] | IC50 [4] [nM] | Molecule |
| --- | --- | --- | --- | --- | --- |
| 97 | 158 |  |  |  | 4-(5-Benzylamino-imidazo[4,5-b]pyridine-1-yl)-benzonitrile [Compound 3] |
|  | 6650 |  |  |  | COCc1nc2ccc(NC(=O)c3ccc(Br)o3)cc2[nH]1 [Compound 2] |
|  | 187 | 53 | 1670 | 2390 | CC(C)(C)c1ccc(C(=O)Nc2cn3cc(-n4ccnc4)ccc3n2)cc1 [Compound 1] |
